Assays:
Assay in all cases: Radioligand Binding Assay
Adenosine receptor A2a = Adenosine receptor A2a (Homo sapiens, UniProt P29274)
Method: (§1) The radioligands used were 1 nM (2R,3R,4S,5R)-2-(2-chloro-6-cyclopentylamino-purin-9-yl)-5-hydroxymethyl-tetrahydro-3,4-diol ([3H]CCPA) for hA1, 10 nM (1-(6-amino-9H-purin-9-yl)-1-deoxy-N-ethyl-β-D-ribofuronamide) ([3H]NECA) for hA2a, and 1 nM 2-(1-hexynyl)-N6-methyladenosine [3H] ([3H]HEMADO) for hA3 receptors.

Adenosine receptor A1 = biological target: T1, Adenosine receptor A1 (Homo sapiens, UniProt P30542)
T1 sequence (P30542 whole entry): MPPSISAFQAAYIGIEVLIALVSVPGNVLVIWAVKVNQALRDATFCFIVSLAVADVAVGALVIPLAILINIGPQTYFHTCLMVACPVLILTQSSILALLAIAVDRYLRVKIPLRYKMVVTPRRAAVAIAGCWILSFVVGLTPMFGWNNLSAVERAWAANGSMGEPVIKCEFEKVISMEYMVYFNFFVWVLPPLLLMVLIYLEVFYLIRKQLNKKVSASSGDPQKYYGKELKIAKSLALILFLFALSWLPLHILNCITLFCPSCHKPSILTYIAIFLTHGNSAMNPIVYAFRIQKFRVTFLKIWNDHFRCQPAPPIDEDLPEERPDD
Method: as §1

Adenosine receptor A3 = biological target: T2, Adenosine receptor A3 (Homo sapiens, UniProt P0DMS8)
T2 sequence (P0DMS8 whole entry): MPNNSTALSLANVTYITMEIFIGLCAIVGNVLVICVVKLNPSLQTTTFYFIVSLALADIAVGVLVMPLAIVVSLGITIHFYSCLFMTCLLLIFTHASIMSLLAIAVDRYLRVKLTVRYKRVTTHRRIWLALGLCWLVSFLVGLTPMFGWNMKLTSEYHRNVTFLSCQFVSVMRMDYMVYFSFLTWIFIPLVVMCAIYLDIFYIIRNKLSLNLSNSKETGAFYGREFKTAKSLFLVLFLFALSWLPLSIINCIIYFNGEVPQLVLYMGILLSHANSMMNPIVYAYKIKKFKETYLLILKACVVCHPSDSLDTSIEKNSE
Method: as §1

Chain of Adenosine receptor A2a (P29274 whole entry): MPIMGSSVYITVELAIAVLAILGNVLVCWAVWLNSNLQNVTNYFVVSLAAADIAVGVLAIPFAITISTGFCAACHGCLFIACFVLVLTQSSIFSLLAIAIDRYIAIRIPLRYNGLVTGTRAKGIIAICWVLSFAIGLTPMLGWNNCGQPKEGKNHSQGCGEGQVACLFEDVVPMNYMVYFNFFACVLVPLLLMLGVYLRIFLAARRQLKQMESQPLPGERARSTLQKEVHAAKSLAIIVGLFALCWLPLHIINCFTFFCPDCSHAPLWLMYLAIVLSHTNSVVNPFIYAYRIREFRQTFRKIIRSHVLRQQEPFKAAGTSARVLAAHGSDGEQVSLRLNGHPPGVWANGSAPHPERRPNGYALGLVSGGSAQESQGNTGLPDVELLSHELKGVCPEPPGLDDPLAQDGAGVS

Row | SMILES | Ki (Adenosine receptor A2a) [µM] | Ki (Adenosine receptor A1) [µM] | Ki (Adenosine receptor A3) [µM]
1 | O=C(Nc1cc2ccccc2oc1=O)c1ccccc1 [N-(2-oxidanylidenechromen-3-yl)benzamide] | > 100 | > 100 | 3.24
2 | C=CC(=O)Nc1c(O)c2ccccc2oc1=O [N-(4-Hydroxycoumarin-3-yl)acrylamide (3)] | > 100 | > 100 | > 100
3 | O=C(Nc1c(O)c2ccccc2oc1=O)c1ccccc1 [N-(4-hydroxycoumarin-3-yl)benzamide (5)] | > 100 | > 100 | > 100
4 | C=CC(=O)Nc1cc2ccccc2oc1=O [N-(Coumarin-3-yl)acrylamide (2)] | 12.2 | 8.95 | > 100
5 | O=C(Nc1cc2ccccc2oc1=O)c1ccco1 [N-(Coumarin-3-yl)furan-2-carboxamide (8)] | > 100 | 5.18 | 9.79
6 | O=C(Nc1cc2ccccc2oc1=O)c1cccnc1 [N-(coumarin-3-yl)nicotinamide (6)] | > 100 | > 100 | > 100
7 | O=C(Nc1cc2ccccc2oc1=O)c1cccs1 [N-(coumarin-3-yl)thiophene-2-carboxamide (7)] | > 100 | 16.2 | > 60
